# Laboratory results: ChEMBL document CHEMBL4017466, “Efficient synthesis of a multi-substituted diphenylmethane skeleton as a steroid mimetic” (Bioorg Med Chem Lett, 2017)
# pIC50: −log10 of the molar value. Calls of active or inactive are those of the source. The calls are words filed in the database; no cut-off is given here.
# Biological target: T1, Estrogen receptor (Homo sapiens, UniProt P03372)
# T1 sequence (P03372 whole entry): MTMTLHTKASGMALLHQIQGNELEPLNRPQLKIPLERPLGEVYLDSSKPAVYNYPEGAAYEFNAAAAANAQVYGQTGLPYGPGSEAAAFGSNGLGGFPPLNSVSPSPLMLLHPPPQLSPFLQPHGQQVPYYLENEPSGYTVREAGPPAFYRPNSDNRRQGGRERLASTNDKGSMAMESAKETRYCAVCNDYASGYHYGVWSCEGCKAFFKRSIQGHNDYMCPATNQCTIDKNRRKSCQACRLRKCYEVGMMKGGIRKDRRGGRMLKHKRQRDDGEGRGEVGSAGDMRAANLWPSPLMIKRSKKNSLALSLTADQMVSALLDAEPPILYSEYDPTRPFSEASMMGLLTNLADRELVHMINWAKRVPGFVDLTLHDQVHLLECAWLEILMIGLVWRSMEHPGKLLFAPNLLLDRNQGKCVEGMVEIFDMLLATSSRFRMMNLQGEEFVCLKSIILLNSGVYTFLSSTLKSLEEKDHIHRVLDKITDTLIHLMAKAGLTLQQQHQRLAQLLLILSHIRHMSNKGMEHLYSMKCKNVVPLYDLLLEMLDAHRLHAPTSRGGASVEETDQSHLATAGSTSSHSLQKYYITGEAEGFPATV
# Assay: Antagonist activity at CMX-GAL4N fused human ERalpha expressed in HEK293 cells assessed as reduction in E2 induced response by luciferase reporter gene assay
# Assay type: cell-based
row,pIC50,SMILES
1,6.18,CCC(CC)(c1ccc(O)c(C)c1)c1ccc(O)c(O)c1
2,7.20,CCCC(CCC)(c1ccc(O)cc1)c1ccc(O)c(O)c1
3,6.80,CCCC(CCC)(c1ccc(O)c(C)c1)c1ccc(O)c(O)c1
4,8.65,CCCC(CCC)(c1ccc(O)c(C)c1)c1ccc(O)c(C)c1
5,6.87,CCCC(CCC)(c1ccc(O)c(C)c1)c1ccc(OCCN(C)C)c(C)c1
6,6.57,CCCC(CCC)(c1ccc(O)c(C)c1)c1cc(C)c(O)c(O)c1
7,6.65,CCCC(CCC)(c1ccc(OCCN(C)C)c(C)c1)c1ccc(O)c(O)c1
8,6.81,CCC(CC)(c1ccc(O)cc1)c1ccc(O)c(O)c1

# Biological target: T2, Estrogen receptor (Homo sapiens) (UniProt P03372)
# T2 sequence (whole entry): T1 sequence (P03372 whole entry)
# Assay: Antagonist activity at CMX-GAL4N fused human ERalpha expressed in HEK293 cells assessed as reduction in E2 induced response at 10 to 10^4 nM by luciferase reporter gene assay
# Assay type: cell-based
row,Activity,SMILES
1,Active,CCCC(CCC)(c1ccc(O)c(C)c1)c1ccc(OC(C)=O)c(OC(C)=O)c1
